Series [1] is described as follows: AUC (0 to 6 hrs) in rat at 10 mg/kg, po. The series is classed as ADME, organism-based. The arrangement: time < 6 hr, dose 10 mg/kg, route oral. To be noted: plasma.
The nature of series [2]: Inhibition of gamma-secretase-mediated amyloid beta-40 production.
The target in another series is Cytochrome P450 3A4 (Homo sapiens, UniProt P08684). The experiment in a line: Inhibition of CYP3A4 after 30 mins. In kind it is ADME.

What is called AUC(0-t) is exposure summed from dosing to a finite time, without extrapolation to infinity. In general, IC50 refers to the concentration at which inhibition is half-maximal.

Chain of Cytochrome P450 3A4 (P08684 whole entry): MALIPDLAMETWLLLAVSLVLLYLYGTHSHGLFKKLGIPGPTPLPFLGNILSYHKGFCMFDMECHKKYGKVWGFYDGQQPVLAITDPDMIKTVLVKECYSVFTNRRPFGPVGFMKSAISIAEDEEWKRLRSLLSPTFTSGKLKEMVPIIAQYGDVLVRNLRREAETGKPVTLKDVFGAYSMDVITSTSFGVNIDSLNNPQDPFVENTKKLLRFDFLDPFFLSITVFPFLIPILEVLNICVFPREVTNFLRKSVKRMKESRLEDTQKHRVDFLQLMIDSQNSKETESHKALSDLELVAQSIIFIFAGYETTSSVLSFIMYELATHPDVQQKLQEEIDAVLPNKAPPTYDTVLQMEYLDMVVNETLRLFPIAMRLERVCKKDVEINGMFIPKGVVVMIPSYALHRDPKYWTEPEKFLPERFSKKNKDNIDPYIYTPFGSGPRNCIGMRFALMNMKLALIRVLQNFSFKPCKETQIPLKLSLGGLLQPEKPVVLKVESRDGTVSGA

As to `CC(C)[C@@H]1COC[C@H](C2(OC(=O)N3CC4CCC(C3)N4)CC2)N1S(=O)(=O)c1ccc(Cl)cc1`, the AUC(0-t) at 6 h in series [1] amounted to 4.97 µM·h. The half-inhibitory concentration (IC50) in series [2] is 2 nM; at Cytochrome P450 3A4, 500 nM.

`CC(C)[C@@H]1COC[C@H](C2(OC(=O)N3CC[C@@H](O)C3)CC2)N1S(=O)(=O)c1ccc(Cl)cc1`: the area under the curve AUC(0-t) at 6 h in series [1] was 0.036 µM·h. Also, the IC50 in series [2] came out at 18.9 nM; at Cytochrome P450 3A4, 13600 nM.

Regarding `CC(C)[C@@H]1COC[C@H](C2(OC(=O)N3CCC(CO)CC3)CC2)N1S(=O)(=O)c1ccc(Cl)cc1`, the IC50 was 6.5 nM in series [2] and 13800 nM against Cytochrome P450 3A4.

Regarding `CC(C)[C@@H]1COC[C@H](C2(OC(=O)N3CC[C@H](O)C3)CC2)N1S(=O)(=O)c1ccc(Cl)cc1`, the IC50 in series [2] turned out to be 17 nM; at Cytochrome P450 3A4 it was 30000 nM.

In the case of `CC(C)[C@@H]1COC[C@H](C2(OC(=O)N3CC4CNCC4C3)CC2)N1S(=O)(=O)c1ccc(Cl)cc1` (stereo partly specified), in series [1], the area under the curve AUC(0-t) at 6 h stood at 1.12 µM·h. For the same compound, the IC50 in series [2] turned out to be 9.3 nM; against Cytochrome P450 3A4, 6400 nM.

As for `CC(C)[C@@H]1COC[C@H](C2(OC(=O)N3CCNCC3)CC2)N1S(=O)(=O)c1ccc(Cl)cc1`, in series [1], the AUC(0-t) at 6 h is 3.93 µM·h. Also, the figures for the IC50 (in series [2]; at Cytochrome P450 3A4) were 14.5 nM and 300 nM, respectively.

`CC(C)(C)[C@@H]1COC[C@H](COC(=O)N2CCN(C(C)(C)CO)CC2)N1S(=O)(=O)c1ccc(Cl)cc1`: the IC50 is 34.7 nM in series [2] and 23800 nM on Cytochrome P450 3A4.

In the case of `CC(C)(C)[C@@H]1COC[C@H](COC(=O)N2CCC(CO)CC2)N1S(=O)(=O)c1ccc(Cl)cc1`, the IC50 in series [2] came out at 108 nM; against Cytochrome P450 3A4, 7100 nM.

In the case of `CC1([C@@H]2COC[C@H](COC(=O)N3CCC(CO)CC3)N2S(=O)(=O)c2ccc(Cl)cc2)CC1`, the IC50 turned out to be 131 nM in series [2] and 5500 nM at Cytochrome P450 3A4.

On to `CC1([C@@H]2COC[C@H](COC(=O)N3CCC(N4CCCCC4)CC3)N2S(=O)(=O)c2ccc(Cl)cc2)CC1`, for which the IC50 in series [2] was 20.4 nM; at Cytochrome P450 3A4, 1500 nM.

Regarding `CC1([C@@H]2COC[C@H](COC(=O)N3CCN(C(C)(C)CO)CC3)N2S(=O)(=O)c2ccc(Cl)cc2)CC1`, the IC50 is 39.3 nM in series [2] and 500 nM against Cytochrome P450 3A4.

Take `O=C(OC1([C@H]2COC[C@@H](CC3CC3)N2S(=O)(=O)c2ccc(Cl)cc2)CC1)N1CC2CCC(C1)N2`: the AUC(0-t) at 6 h in series [1] worked out at 4.58 µM·h. The IC50 in series [2] was 0.8 nM; against Cytochrome P450 3A4 it was 800 nM.

As to `O=C(OC1([C@H]2COC[C@@H](CC3CC3)N2S(=O)(=O)c2ccc(Cl)cc2)CC1)N1CC2CCC(C1)N2CCO`, the AUC(0-t) at 6 h in series [1] worked out at 1.28 µM·h. In addition, the IC50 in series [2] is 0.9 nM; on Cytochrome P450 3A4, 2300 nM.

Regarding `CC(=O)N1C2CCC1CN(C(=O)OC1([C@H]3COC[C@@H](CC4CC4)N3S(=O)(=O)c3ccc(Cl)cc3)CC1)C2`, in series [1], the AUC(0-t) at 6 h was 0.013 µM·h. Moreover, the values for the IC50 (in series [2]; against Cytochrome P450 3A4) were 4.4 nM and above 30000 nM, respectively.

Compound `CCNC(=O)N1C2CCC1CN(C(=O)OC1([C@H]3COC[C@@H](CC4CC4)N3S(=O)(=O)c3ccc(Cl)cc3)CC1)C2` registered an AUC(0-t) at 6 h in series [1] of 0.06 µM·h. The values for the concentration for half-maximal inhibition (IC50) (in series [2]; at Cytochrome P450 3A4) were 5.5 nM and above 30000 nM, respectively.

Compound `O=C(OC1([C@H]2COC[C@@H](CC3CC3)N2S(=O)(=O)c2ccc(Cl)cc2)CC1)N1CC2CC1CN2CCO` (stereo partly specified) showed an AUC(0-t) at 6 h in series [1] of 1.35 µM·h. In addition, the 50% inhibitory concentration (IC50) in series [2] stood at 3.6 nM; on Cytochrome P450 3A4, 3200 nM.

`C[C@@H]1CN(C(=O)OC2([C@H]3COC[C@@H](CC4CC4)N3S(=O)(=O)c3ccc(Cl)cc3)CC2)C[C@H](C)N1CCO`: in series [1], the AUC(0-t) at 6 h came out at 1.23 µM·h. The IC50 in series [2] was 11.6 nM; against Cytochrome P450 3A4, 2000 nM.

In series [1], `CN1CCN(C(=O)OC2([C@H]3COC[C@@H](CC4CC4)N3S(=O)(=O)c3ccc(Cl)cc3)CC2)CC1=O` came in with an exposure AUC(0-t) at 6 h of 1.02 µM·h. Besides, the IC50 is 5.7 nM in series [2] and 1400 nM against Cytochrome P450 3A4.

As for `CC[C@H]1CN(C(C)=O)[C@H](C)CN1C(=O)OC1([C@H]2COC[C@@H](CC3CC3)N2S(=O)(=O)c2ccc(Cl)cc2)CC1`, the IC50 in series [2] is 29.3 nM; against Cytochrome P450 3A4, above 30000 nM.

`CC(C)(CO)N1CCN(C(=O)OC2([C@H]3COC[C@@H](CC4CC4)N3S(=O)(=O)c3ccc(Cl)cc3)CC2)CC1` returned an AUC(0-t) at 6 h in series [1] of 0.077 µM·h. The IC50 in series [2] is 27.6 nM; on Cytochrome P450 3A4 it was above 30000 nM.

Take `O=C(OC1([C@H]2COC[C@@H](CC3CC3)N2S(=O)(=O)c2ccc(Cl)cc2)CC1)N1CCC2(CCN2)CC1`: the AUC(0-t) at 6 h in series [1] came to 1.34 µM·h. Also, the IC50 in series [2] amounted to 3.1 nM; against Cytochrome P450 3A4, 11300 nM.

`CN1CCC12CCN(C(=O)OC1([C@H]3COC[C@@H](CC4CC4)N3S(=O)(=O)c3ccc(Cl)cc3)CC1)CC2` yielded an AUC(0-t) at 6 h in series [1] of 0.894 µM·h. Moreover, the IC50 in series [2] was 2.6 nM; against Cytochrome P450 3A4, 30000 nM.

Turning to `O=C1CC2(CCN(C(=O)OC3([C@H]4COC[C@@H](CC5CC5)N4S(=O)(=O)c4ccc(Cl)cc4)CC3)CC2)N1`, the AUC(0-t) at 6 h in series [1] amounted to 0.037 µM·h. The results for the IC50 (in series [2]; at Cytochrome P450 3A4) were 7.4 nM and above 30000 nM, respectively.
